Series [1] deals with NCI-H1437 cells. Description: CCK-8 assay, NCI-H1437 cells. It counts as cell-based. The settings on record: CCK-8, 48 h, mean ± SD, n = 3. How it is done: (§1) Next, cell viability was determined according to the instructions of the CCK-8 assay. Then, 10 μL CCK-8 solution was added to each well of the plate and incubated for 1–4 h in the incubator. […] The percentage of viable cells was measured using the following formula where three independent experiments were performed: [(A450sample − A450blank)/(A450control − A450blank)] × 100%.
For orientation: Tetrazolium assays rely on reduction of a dye to a coloured formazan, in cell work by metabolically active cells.

Series [2] deals with NCI-H1299 cells. The series is described as follows: CCK-8 assay, NCI-H1299 cells. The series is classed as cell-based, human. The settings on record: CCK-8, 48 h, mean ± SD, n = 3. How it is done: as §1
Series [3] deals with A549 cells. Description: CCK-8 assay, A549 cells. The series is classed as cell-based. The settings on record: CCK-8, 48 h, mean ± SD, n = 3. How it is done: as §1
In series [4] the test system is IDO1. The settings on record: read-out: IDO1 inhibitory activity IC50; cited from earlier work.

The text below walks through data of PMC10892142, “Synthesis and In Vitro Antitumor Activity Evaluation of Gefitinib-1,2,3-Triazole Derivatives” (Molecules, 2024).

As a reminder, the IC50 is the concentration needed to halve the response being measured. In the case of “7-Methoxy-N-(3-(1-(2-methyl-3-nitrophenyl)-1H-1,2,3-triazol-4-yl)phenyl)-6-(3-morpholinopropoxy)quinazolin-4-amine [Compound 4g]”, the values for the IC50 in series [1], in series [2] and in series [3] were 2.15 ± 0.1 µM, 6.02 ± 0.12 µM and 4.65 ± 0.08 µM, respectively.

The term melting point denotes the temperature, or range, at which the solid turns liquid. For the compound `COc1cc2ncnc(Nc3cccc(-c4cn(Cc5ccc(F)c(Cl)c5)nn4)c3)c2cc1OCCCN1CCOCC1` [Compound 4a, N-(3-(1-(3-Chloro-4-fluorobenzyl)-1H-1,2,3-triazol-4-yl)phenyl)-7-methoxy-6-(3-morpholinopropoxy)quinazolin-4-amine], the melting point lay in the range of 192 to 193 °C. Moreover, in series [1] (Homo sapiens, NCI-H1437), the IC50 came out at 2.05 ± 0.03 µM. The same compound displayed an IC50 in series [2] (Homo sapiens, NCI-H1299) of 7.59 ± 0.19 µM. Inhibition in series [3] (Homo sapiens, A549) was half-maximal at 6.81 ± 0.33 µM (IC50).

The compound `COc1cc2ncnc(Nc3cccc(-c4cn(-c5ccc(Cl)cc5)nn4)c3)c2cc1OCCCN1CCOCC1` [Compound 4d, N-(3-(1-(4-Chlorophenyl)-1H-1,2,3-triazol-4-yl)phenyl)-7-methoxy-6-(3-morpholinopropoxy)quinazolin-4-amine] yielded a melting point of 162 to 163 °C. The same compound had an IC50 in series [1] (Homo sapiens, NCI-H1437) of 6.41 ± 0.54 µM. In addition, the IC50 in series [2] (Homo sapiens, NCI-H1299) was found to be 11.4 ± 0.97 µM. For the same compound, half-maximal inhibition in series [3] (Homo sapiens, A549) (IC50) required 9.04 ± 0.41 µM.

Compound `COc1cc2ncnc(Nc3cccc(-c4cn(-c5ccccc5Br)nn4)c3)c2cc1OCCCN1CCOCC1` [Compound 4e, N-(3-(1-(2-Bromophenyl)-1H-1,2,3-triazol-4-yl)phenyl)-7-methoxy-6-(3-morpholinopropoxy)quinazolin-4-amine] registered a melting point of 175 to 176 °C. In addition, in series [1] (Homo sapiens, NCI-H1437), the IC50 amounted to 11.2 ± 0.95 µM. Moreover, the midpoint of inhibition in series [2] (Homo sapiens, NCI-H1299), the IC50, lay at 11.9 ± 0.32 µM. Also, the half-inhibitory concentration (IC50) in series [3] (Homo sapiens, A549) is 8.62 ± 0.76 µM.

`COc1cc2ncnc(Nc3cccc(-c4cn(-c5ccc([N+](=O)[O-])c(C)c5)nn4)c3)c2cc1OCCCN1CCOCC1` [Compound 4f, 7-Methoxy-N-(3-(1-(3-methyl-4-nitrophenyl)-1H-1,2,3-triazol-4-yl)phenyl)-6-(3-morpholinopropoxy)quinazolin-4-amine]: the melting point fell in the range of 175 to 176 °C. In series [1] (Homo sapiens, NCI-H1437), this compound came in with an IC50 of 9.27 ± 0.4 µM. The compound also showed an IC50 in series [2] (Homo sapiens, NCI-H1299) of 13.3 ± 0.52 µM. This compound yielded an IC50 in series [3] (Homo sapiens, A549) of 13.7 ± 0.71 µM.

In the case of `COc1cc2ncnc(Nc3cccc(-c4cn(-c5ccccc5Cl)nn4)c3)c2cc1OCCCN1CCOCC1` [Compound 4h, N-(3-(1-(2-Chlorophenyl)-1H-1,2,3-triazol-4-yl)phenyl)-7-methoxy-6-(3-morpholinopropoxy)quinazolin-4-amine], the melting point was in the range of 167 to 168 °C. In addition, the IC50 in series [1] (Homo sapiens, NCI-H1437) amounted to 3.09 ± 0.13 µM. Also, the IC50 in series [2] (Homo sapiens, NCI-H1299) turned out to be 7.69 ± 0.11 µM. The IC50 in series [3] (Homo sapiens, A549) turned out to be 9.81 ± 0.34 µM.

With `COc1cc2ncnc(Nc3cccc(-c4cn(-c5cccc(F)c5)nn4)c3)c2cc1OCCCN1CCOCC1` [Compound 4i, N-(3-(1-(3-Fluorophenyl)-1H-1,2,3-triazol-4-yl)phenyl)-7-methoxy-6-(3-morpholinopropoxy)quinazolin-4-amine], the IC50 came out at 4.77 ± 0.32 µM in series [1] (Homo sapiens, NCI-H1437); 9.35 ± 0.31 µM in series [2] (Homo sapiens, NCI-H1299); 13 ± 0.29 µM in series [3] (Homo sapiens, A549).

Compound `COc1cc2ncnc(Nc3cccc(-c4cn(-c5cccc6c5C(=O)N(C5CCC(=O)NC5=O)C6=O)nn4)c3)c2cc1OCCCN1CCOCC1` (stereo not drawn) [Compound 4j, 2-(2,6-Dioxopiperidin-3-yl)-4-(4-(3-((7-methoxy-6-(3-morpholinopropoxy)quinazolin-4-yl)amino)phenyl)-1H-1,2,3-triazol-1-yl)isoindoline-1,3-dione] displayed a melting point of 187 to 188 °C. This compound returned a half-inhibitory concentration (IC50) in series [1] (Homo sapiens, NCI-H1437) of 6.6 ± 0.07 µM. Moreover, the IC50 in series [2] (Homo sapiens, NCI-H1299) worked out at 12 ± 0.33 µM. The compound also registered an IC50 in series [3] (Homo sapiens, A549) of 11.4 ± 0.89 µM.

`COc1cc2ncnc(Nc3cccc(-c4cn(Cc5ccc(Br)cc5)nn4)c3)c2cc1OCCCN1CCOCC1` [Compound 4k, N-(3-(1-(4-Bromobenzyl)-1H-1,2,3-triazol-4-yl)phenyl)-7-methoxy-6-(3-morpholinopropoxy)quinazolin-4-amine] showed a melting point of 177 to 178 °C. It took 5.95 ± 0.72 µM to reach half-maximal inhibition in series [1] (Homo sapiens, NCI-H1437) (IC50). This compound also had an IC50 in series [2] (Homo sapiens, NCI-H1299) of 7.15 ± 0.12 µM. Half-maximal inhibition in series [3] (Homo sapiens, A549) (IC50) required 8.95 ± 0.99 µM.

The compound `COc1cc2ncnc(Nc3cccc(-c4cn(Cc5ccccc5C#N)nn4)c3)c2cc1OCCCN1CCOCC1` [Compound 4l, 2-((4-(3-((7-Methoxy-6-(3-morpholinopropoxy)quinazolin-4-yl)amino)phenyl)-1H-1,2,3-triazol-1-yl)methyl)benzonitrile] returned a melting point of 167 to 168 °C. Besides, inhibition in series [1] (Homo sapiens, NCI-H1437) was half-maximal at 2.23 ± 0.26 µM (IC50). In series [2] (Homo sapiens, NCI-H1299), this compound displayed an IC50 of 5.43 ± 0.24 µM. Besides, half-maximal inhibition in series [3] (Homo sapiens, A549) (IC50) was put at 7.53 ± 0.66 µM.

As to `COc1cc2ncnc(Nc3cccc(-c4cn(Cc5cc(Br)cc(Br)c5)nn4)c3)c2cc1OCCCN1CCOCC1` [Compound 4m, N-(3-(1-(3,5-Dibromobenzyl)-1H-1,2,3-triazol-4-yl)phenyl)-7-methoxy-6-(3-morpholinopropoxy)quinazolin-4-amine], the IC50 in series [1] (Homo sapiens, NCI-H1437) was determined as 2.53 ± 0.11 µM; in series [2] (Homo sapiens, NCI-H1299), 4.79 ± 0.13 µM; in series [3] (Homo sapiens, A549) it was 2.39 ± 0.3 µM.

In turn, `COc1cc2ncnc(Nc3cccc(-c4cn(Cc5ccc(C)cc5)nn4)c3)c2cc1OCCCN1CCOCC1` [Compound 4n, 7-methoxy-N-(3-(1-(4-methylbenzyl)-1H-1,2,3-triazol-4-yl)phenyl)-6-(3-morpholinopropoxy)quinazolin-4-amine] yielded a melting point of 168 to 169 °C. This compound also had an IC50 in series [1] (Homo sapiens, NCI-H1437) of 5.79 ± 0.88 µM. Besides, the IC50 in series [2] (Homo sapiens, NCI-H1299) is 5.91 ± 0.44 µM. 10.4 ± 0.82 µM corresponded to half-maximal inhibition in series [3] (Homo sapiens, A549) (IC50).

`Oc1ccc(Cl)cc1-c1cnn[nH]1` [MMG-0358]: the half-inhibitory concentration (IC50) in series [4] is 0.082 µM.

On to `Clc1ccc(Nc2cnn[nH]2)cc1` [Vertex-AT], for which the half-inhibitory concentration (IC50) in series [4] was 0.023 µM.

Take `COCCOc1cc2ncnc(Nc3cccc(-c4cn(Cc5ccccc5Br)nn4)c3)c2cc1OCCOC` [compound e]: the IC50 in series [4] was 0.32 ± 0.07 µM.
